Experiments:
Assay type in all cases: in vivo
[1] = Plasma PK of brensocatib, BID vs QD oral dosing, BALB/c mice; settings: for half-life / AUC(0-t): both sexes, BALB/c, mouse, po
Method: (§1) A dose frequency study was performed in male and female mice (C57BL/6 & BALB/c) and in male and female rats (Sprague Dawley & Wistar) investigating twice daily (BID) versus once daily (QD) brensocatib administration.
(§2) Briefly, animals were weighed and randomized into different treatment groups. In total, three different dosing levels of brensocatib were tested in each species and strain; each QD dosing level was equivalent to 1.5-times the matching daily BID dose. For BID dosing, the second daily dose was administered 8-h post the morning dose. C57BL/6 mice were dosed either BID or QD for 7 consecutive days at 0/0, 0.5/0.75, 2/3, and 20/30 mg/kg/day (BID/QD). BALB/c mice were dosed for 7 consecutive days at 0/0, 0.2/0.3, 2/3, and 20/30 mg/kg/day (BID/QD). SD rats were dosed for 9 consecutive days at 0/0, 0.2/0.3, 2/3, and 20/30 mg/kg/day (BID/QD). Wistar rats were dosed for 7 consecutive days at 0/0, 0.2/0.3, 2/3, and 20/30 mg/kg/day (BID/QD).
(§3) For sparse PK analysis via LC-MS/MS, plasma was collected from animals during the first 24 h of dosing at prescribed timepoints. The timepoints included 1, 3, 8, and 24 h post initial dose for QD groups, and 1, 3, 8, 9, 11, and 24 h post initial dose for BID groups. Note that the 8- and 24-h plasma samples were prior to the afternoon dose for BID groups and prior to the second day dose for all groups, respectively. See section Quantification of Plasma Brensocatib Concentrations for details.
(§4) Blood was collected via the tail-vein technique and centrifuged to separate and collect the plasma. The resulting plasma samples were stored at −20°C or lower until LC-MS/MS analysis.
(§5) The plasma concentration of brensocatib was quantified by liquid chromatography, tandem mass spectrometry (LC-MS/MS), a Sciex API6500 mass spectrometer (SCIEX, Framingham, MA). Two brensocatib stock solutions were prepared, one for the preparation of the 8-point standard (STD) curve spiking solutions and the other for the preparation of the quantitative control spiking solutions (QCs) at three levels. The STD curve and QCs were prepared by 2% spiking from the spiking solutions into mouse or rat plasma. The samples were extracted using a protein precipitation method, where 10 µL of sample was mixed with 100 µL of internal standard working solution (100 ng/mL ^6C13-brensocatib in methanol), vortexed for 5 s, and centrifuged at 21,130 × g at 4°C for 15 min. The supernatant was mixed with an equal volume of water and 10 μL was injected into a Phenomenex Kinetex Biphenyl column (3.0 mm × 50 mm; 2.6 μm; 65°C; 0.8 mL/min) with an elution gradient consisting of mobile phase A (10 mM ammonium formate) and mobile phase B (methanol) over 2 min from 5% to 95% B. The mass spectrometer was equipped with an atmospheric-pressure chemical ionization source operating in positive mode.
(§6) Individual plasma concentrations were plotted and the area under the curve (AUC) was calculated using the trapezoid method. The elimination rate constant (k e ) was calculated as the negative natural log of the plasma concentration over time (Eq. 1) starting at the max concentration (C max) after the most recent dose to the last measurable plasma concentration between doses. The calculated k e was used to define the half-life (t 1/2 ) based on Eq. 2; where 0.693 is the natural log of 2 and assumes a first-order reaction. ke=−ln∆C/∆t (1) t1/2=0.693/ke (2)

[2] = Plasma PK of brensocatib, BID vs QD oral dosing, Sprague Dawley rats; settings: both sexes, rat; for AUC(0-t): first 24 h
Method: as §1, §2, §3, §4, §5, §6

[3] = Plasma PK of brensocatib, BID vs QD oral dosing, Wistar rats; settings: both sexes, rat; for half-life: Wistar, po; for AUC(0-t): first 24 h
Method: as §1, §2, §3, §4, §5, §6

[4] = 0.2 mg/kg/day, oral BID, 0.2 mg/kg/day, evening dose, read-out: t1/2, PM dose (converted)
[5] = 0.2 mg/kg/day, oral BID, 0.2 mg/kg/day, morning dose, read-out: t1/2, AM dose (converted)
[6] = 0.3 mg/kg/day, oral QD, 0.3 mg/kg/day, read-out: t1/2, AM dose (converted)
[7] = 2 mg/kg/day, oral BID, 2 mg/kg/day, evening dose, read-out: t1/2, PM dose (converted)
[8] = 2 mg/kg/day, oral BID, 2 mg/kg/day, morning dose, read-out: t1/2, AM dose (converted)
[9] = 3 mg/kg/day, oral QD, 3 mg/kg/day, read-out: t1/2, AM dose (converted)
[10] = 20 mg/kg/day, oral BID, 20 mg/kg/day, evening dose, read-out: t1/2, PM dose (converted)
[11] = 20 mg/kg/day, oral BID, 20 mg/kg/day, morning dose, read-out: t1/2, AM dose (converted)
[12] = 30 mg/kg/day, oral QD, 30 mg/kg/day, read-out: t1/2, AM dose (converted)

Structure (SMILES): Cn1c(=O)oc2ccc(-c3ccc(C[C@@H](C#N)NC(=O)[C@@H]4CNCCCO4)cc3)cc21 [brensocatib]
- half-life [1, 4]: 0.67 ± 0.04 h
- AUC(0-t) ([1]; 0.2 mg/kg/day, oral BID, 0.2 mg/kg/day, first 24 h, read-out: AUC0–24h): 124 ± 31 ng·h/mL
- AUC(0-t) ([1]; 0.2 mg/kg/day, oral BID, 0.2 mg/kg/day, first 24 h, read-out: AUC(0–24)): 0.29 ± 0.07 µM·h
- half-life [1, 5]: 1.58 ± 0.72 h
- AUC(0-t) ([1]; 0.3 mg/kg/day, oral QD, 0.3 mg/kg/day, first 24 h, read-out: AUC0–24h): 188 ± 31 ng·h/mL
- AUC(0-t) ([1]; 0.3 mg/kg/day, oral QD, 0.3 mg/kg/day, first 24 h, read-out: AUC(0–24)): 0.45 ± 0.07 µM·h
- half-life [1, 6]: 0.97 ± 0.03 h
- half-life [1, 7]: 1.19 ± 0.34 h
- AUC(0-t) ([1]; 2 mg/kg/day, oral BID, 2 mg/kg/day, first 24 h, read-out: AUC0–24h): 1510 ± 395 ng·h/mL
- AUC(0-t) ([1]; 2 mg/kg/day, oral BID, 2 mg/kg/day, first 24 h, read-out: AUC(0–24)): 3.59 ± 0.94 µM·h
- half-life [1, 8]: 3.22 ± 0.35 h
- AUC(0-t) ([1]; 3 mg/kg/day, oral QD, 3 mg/kg/day, first 24 h, read-out: AUC0–24h): 2960 ± 679 ng·h/mL
- AUC(0-t) ([1]; 3 mg/kg/day, oral QD, 3 mg/kg/day, first 24 h, read-out: AUC(0–24)): 7.04 µM·h
- half-life [1, 9]: 0.83 ± 0.03 h
- half-life [1, 10]: 1.88 ± 0.06 h
- AUC(0-t) ([1]; 20 mg/kg/day, oral BID, 20 mg/kg/day, first 24 h, read-out: AUC0–24h): 24100 ng·h/mL
- AUC(0-t) ([1]; 20 mg/kg/day, oral BID, 20 mg/kg/day, first 24 h, read-out: AUC(0–24)): 57.3 ± 11.4 µM·h
- half-life [1, 11]: 2.47 ± 0.31 h
- AUC(0-t) ([1]; 30 mg/kg/day, oral QD, 30 mg/kg/day, first 24 h, read-out: AUC0–24h): 56300 ng·h/mL
- AUC(0-t) ([1]; 30 mg/kg/day, oral QD, 30 mg/kg/day, first 24 h, read-out: AUC(0–24)): 134 ± 41.1 µM·h
- half-life [1, 12]: 2.56 ± 0.14 h
- AUC(0–24) ([1]; oral QD, 3 mg/kg/day, first 24 h): 7.05 ± 1.61 µM·h
- half-life ([2]; Sprague Dawley, Wistar, oral, rats (both strains), across BID and QD regimens, sparse PK, read-out: half-life (overall) (converted)): ~8 h
- AUC(0-t) ([2]; Sprague-Dawley, SD rats, oral BID, 0.2 mg/kg/day, read-out: AUC0–24h): 124 ± 81 ng·h/mL
- AUC(0-t) ([2]; Sprague-Dawley, SD rats, oral BID, 0.2 mg/kg/day, read-out: AUC(0–24)): 0.29 ± 0.19 µM·h
- AUC(0-t) ([2]; Sprague-Dawley, SD rats, oral BID, 2 mg/kg/day, read-out: AUC0–24h): 4730 ± 421 ng·h/mL
- AUC(0-t) ([2]; Sprague-Dawley, SD rats, oral BID, 2 mg/kg/day, read-out: AUC(0–24)): 11.2 ± 1 µM·h
- AUC(0-t) ([2]; Sprague-Dawley, SD rats, oral BID, 20 mg/kg/day, read-out: AUC0–24h): 72600 ng·h/mL
- AUC(0-t) ([2]; Sprague-Dawley, SD rats, oral BID, 20 mg/kg/day, read-out: AUC(0–24)): 173 ± 8.09 µM·h
- AUC(0-t) ([2]; Sprague-Dawley, SD rats, oral QD, 0.3 mg/kg/day, read-out: AUC0–24h): 269 ± 128 ng·h/mL
- AUC(0-t) ([2]; Sprague-Dawley, SD rats, oral QD, 0.3 mg/kg/day, read-out: AUC(0–24)): 0.64 ± 0.3 µM·h
- AUC(0-t) ([2]; Sprague-Dawley, SD rats, oral QD, 3 mg/kg/day, read-out: AUC0–24h): 11100 ng·h/mL
- AUC(0-t) ([2]; Sprague-Dawley, SD rats, oral QD, 3 mg/kg/day, read-out: AUC(0–24)): 26.39 ± 0.25 µM·h
- AUC(0-t) ([2]; Sprague-Dawley, SD rats, oral QD, 30 mg/kg/day, read-out: AUC0–24h): 104000 ng·h/mL
- AUC(0-t) ([2]; Sprague-Dawley, SD rats, oral QD, 30 mg/kg/day, read-out: AUC(0–24)): 248 ± 59.5 µM·h
- half-life ([2]; Sprague-Dawley, po, 0.2 mg/kg/day, SD rats, oral BID, 0.2 mg/kg/day, evening dose, read-out: t1/2, PM dose (converted)): 0.55 ± 0.02 h
- half-life ([2]; Sprague-Dawley, po, 0.3 mg/kg/day, SD rats, oral QD, 0.3 mg/kg/day, read-out: t1/2, AM dose (converted)): 5.36 ± 2.38 h
- half-life ([2]; Sprague-Dawley, po, 2 mg/kg/day, SD rats, oral BID, 2 mg/kg/day, evening dose, read-out: t1/2, PM dose (converted)): 7.42 ± 1.16 h
- half-life ([2]; Sprague-Dawley, po, 2 mg/kg/day, SD rats, oral BID, 2 mg/kg/day, morning dose, read-out: t1/2, AM dose (converted)): 13.5 ± 9.16 h
- half-life ([2]; Sprague-Dawley, po, 3 mg/kg/day, SD rats, oral QD, 3 mg/kg/day, read-out: t1/2, AM dose (converted)): 4.46 ± 0.37 h
- half-life ([2]; Sprague-Dawley, po, 20 mg/kg/day, SD rats, oral BID, 20 mg/kg/day, evening dose, read-out: t1/2, PM dose (converted)): 4.03 ± 0.44 h
- half-life ([2]; Sprague-Dawley, po, 20 mg/kg/day, SD rats, oral BID, 20 mg/kg/day, morning dose, read-out: t1/2, AM dose (converted)): 14.1 ± 1.55 h
- half-life ([2]; Sprague-Dawley, po, 30 mg/kg/day, SD rats, oral QD, 30 mg/kg/day, read-out: t1/2, AM dose (converted)): 3.88 ± 0.04 h
- half-life [3, 4]: 6.45 ± 0.55 h
- half-life [3, 5]: 5.48 ± 1.76 h
- half-life [3, 6]: 34.3 ± 20.3 h
- half-life [3, 7]: 4.99 ± 0.33 h
- half-life [3, 8]: 10.2 ± 1.47 h
- half-life [3, 9]: 5.14 ± 0.5 h
- half-life [3, 10]: 4.33 ± 0.16 h
- half-life [3, 11]: 7.81 ± 1.38 h
- half-life [3, 12]: 4.41 ± 0.18 h
- AUC(0-t) ([3]; oral BID, 0.2 mg/kg/day, read-out: AUC0–24h): 377 ± 78 ng·h/mL
- AUC(0-t) ([3]; oral BID, 0.2 mg/kg/day, read-out: AUC(0–24)): 0.9 ± 0.18 µM·h
- AUC(0-t) ([3]; oral BID, 2 mg/kg/day, read-out: AUC0–24h): 9820 ± 1820 ng·h/mL
- AUC(0-t) ([3]; oral BID, 2 mg/kg/day, read-out: AUC(0–24)): 23.4 ± 4.32 µM·h
- AUC(0-t) ([3]; oral BID, 20 mg/kg/day, read-out: AUC0–24h): 173000 ng·h/mL
- AUC(0-t) ([3]; oral BID, 20 mg/kg/day, read-out: AUC(0–24)): 412 ± 89.6 µM·h
- AUC(0-t) ([3]; oral QD, 0.3 mg/kg/day, read-out: AUC0–24h): 1040 ± 291 ng·h/mL
- AUC(0-t) ([3]; oral QD, 0.3 mg/kg/day, read-out: AUC(0–24)): 2.46 ± 0.69 µM·h
- AUC(0-t) ([3]; oral QD, 3 mg/kg/day, read-out: AUC0–24h): 11700 ng·h/mL
- AUC(0-t) ([3]; oral QD, 3 mg/kg/day, read-out: AUC(0–24)): 27.9 ± 5.53 µM·h
- AUC(0-t) ([3]; oral QD, 30 mg/kg/day, read-out: AUC0–24h): 266000 ng·h/mL
- AUC(0-t) ([3]; oral QD, 30 mg/kg/day, read-out: AUC(0–24)): 634 ± 52.4 µM·h
